Results published in ChEMBL document CHEMBL1133283, “Arylsulfonyl-N,N-diethyl-dithiocarbamates: a novel class of antitumor agents” (Bioorg Med Chem Lett, 2000).

Columns and labels:
[1] = biological target: Carbonic anhydrase 2 (Homo sapiens, UniProt P00918); assay: Binding affinity of compound against human Carbonic anhydrase II
[2] = system: A549; assay: In vitro growth inhibition of compound was determined against A549/ATCC cell lines of non-small cell lung cancer; type: functional; conditions: Homo sapiens
[3] = system: 786-0; assay: In vitro growth inhibition of compound was determined against […] cell lines of Renal cancer; type: functional; conditions: Homo sapiens
[4] = system: BT-549; assay: In vitro growth inhibition of compound was determined against BT-549 cell lines of Breast cancer; type: functional; conditions: Homo sapiens
[5] = system: COLO 205; assay: In vitro growth inhibition of compound was determined against COLO-205 cell lines of colon cancer; type: functional; conditions: Homo sapiens
[6] = system: CCRF-CEM; assay: In vitro growth inhibition of compound was determined against CCRF-CEM cell lines of Leukemia; type: functional; conditions: Homo sapiens
[7] = system: CAKI-1; assay: In vitro growth inhibition of compound was determined against CAKI-1 cell lines of Renal cancer; type: functional; conditions: Homo sapiens
[8] = system: DU-145; assay: In vitro growth inhibition of compound was determined against DU-145 cell lines of Prostate cancer; type: functional; conditions: Homo sapiens
[9] = system: HCT-15; assay: In vitro growth inhibition of compound was determined against HCT-15 cell lines of colon cancer; type: functional; conditions: Homo sapiens
[10] = system: HOP-92; assay: In vitro growth inhibition of compound was determined against HOP-92 cell lines of non-small cell lung cancer; type: functional; conditions: Homo sapiens
[11] = system: HL-60; assay: In vitro growth inhibition of compound was determined against HL-60(TB) cell lines of Leukemia; type: functional; conditions: Homo sapiens
[12] = system: HCT-116; assay: In vitro growth inhibition of compound was determined against HCT116 cell lines of colon cancer; type: functional; conditions: Homo sapiens
[13] = system: HCC 2998; assay: In vitro growth inhibition of compound was determined against HCC2998 cell lines of colon cancer; type: functional; conditions: Homo sapiens
[14] = system: Hs-578T; assay: In vitro growth inhibition of compound was determined against Hs 578.T cell lines of Breast cancer; type: functional; conditions: Homo sapiens
[15] = system: IGROV-1; assay: In vitro growth inhibition of compound was determined against IGROVI cell lines of Ovarian cancer; type: functional; conditions: Homo sapiens
[16] = system: K562; assay: In vitro growth inhibition of compound was determined against K-562 cell lines of Leukemia; type: functional; conditions: Homo sapiens
[17] = system: KM12; assay: In vitro growth inhibition of compound was determined against KM12 cell lines of colon cancer; type: functional; conditions: Homo sapiens
[18] = system: MOLT-4; assay: In vitro growth inhibition of compound was determined against MOLT-4 cell lines of Leukemia; type: functional; conditions: Homo sapiens
[19] = system: LOX IMVI; assay: In vitro growth inhibition of compound was determined against LOX IMVI cell lines of Melanoma; type: functional; conditions: Homo sapiens
[20] = system: MDA-MB-435; assay: In vitro growth inhibition of compound was determined against MDA-MB-435 cell lines of Breast cancer; type: functional; conditions: Homo sapiens
[21] = system: MDA-MB-231; assay: In vitro growth inhibition of compound was determined against MDA-MB-231/ATCC cell lines of Breast cancer; type: functional; conditions: Homo sapiens
[22] = system: MDA-N; assay: In vitro growth inhibition of compound was determined against MDA-Ncell lines of Breast cancer; type: functional; conditions: Homo sapiens
[23] = system: M14; assay: In vitro growth inhibition of compound was determined against M14 cell lines of Melanoma; type: functional; conditions: Homo sapiens
[24] = system: Malme-3M; assay: In vitro growth inhibition of compound was determined against MALME-3M cell lines of Melanoma; type: functional; conditions: Homo sapiens
[25] = system: MCF7; assay: In vitro growth inhibition of compound was determined against MCF-7 cell lines of Breast cancer; type: functional; conditions: Homo sapiens
[26] = system: NCI-H522; assay: In vitro growth inhibition of compound was determined against NCI-H522 cell lines of non-small cell lung cancer; type: functional; conditions: Homo sapiens
[27] = system: NCI-H226; assay: In vitro growth inhibition of compound was determined against NCI-H226 cell lines of non-small cell lung cancer; type: functional; conditions: Homo sapiens
[28] = system: NCI/ADR-RES; assay: In vitro growth inhibition of compound was determined against NCI/ADR-RES cell lines of Breast cancer; type: functional; conditions: Homo sapiens
[29] = system: OVCAR-3; assay: In vitro growth inhibition of compound was determined against OVCAR-3 cell lines of Ovarian cancer; type: functional; conditions: Homo sapiens
[30] = system: OVCAR-8; assay: In vitro growth inhibition of compound was determined against OVCAR-8 cell lines of Ovarian cancer; type: functional; conditions: Homo sapiens
[31] = system: OVCAR-4; assay: In vitro growth inhibition of compound was determined against OVCAR-4 cell lines of Ovarian cancer; type: functional; conditions: Homo sapiens
[32] = system: RXF 393; assay: In vitro growth inhibition of compound was determined against RXF393 cell lines of Renal cancer; type: functional; conditions: Homo sapiens
[33] = system: RPMI-8226; assay: In vitro growth inhibition of compound was determined against RPMI-8226 cell lines of Leukemia; type: functional; conditions: Homo sapiens
[34] = system: SF-268; assay: In vitro growth inhibition of compound was determined against SF-268 cell lines of CNS cancer; type: functional; conditions: Homo sapiens
[35] = system: SW-620; assay: In vitro growth inhibition of compound was determined against SW-620 cell lines of colon cancer; type: functional; conditions: Homo sapiens
[36] = system: SR; assay: In vitro growth inhibition of compound was determined against SR cell lines of Leukemia; type: functional; conditions: Homo sapiens
[37] = system: SN12C; assay: In vitro growth inhibition of compound was determined against SN12C cell lines of Renal cancer; type: functional; conditions: Homo sapiens
[38] = system: SF-295; assay: In vitro growth inhibition of compound was determined against SF-295 cell lines of CNS cancer; type: functional; conditions: Homo sapiens
[39] = system: SNB-75; assay: In vitro growth inhibition of compound was determined against SNB-75 cell lines of CNS cancer; type: functional; conditions: Homo sapiens
[40] = system: SK-MEL-28; assay: In vitro growth inhibition of compound was determined against SK-MEL-28 cell lines of Melanoma; type: functional; conditions: Homo sapiens
[41] = system: SK-MEL-5; assay: In vitro growth inhibition of compound was determined against SK-MEL-5 cell lines of Melanoma; type: functional; conditions: Homo sapiens
[42] = system: TK-10; assay: In vitro growth inhibition of compound was determined against TK-10 cell lines of Renal cancer; type: functional; conditions: Homo sapiens
[43] = system: UACC-257; assay: In vitro growth inhibition of compound was determined against UACC-257 cell lines of Melanoma; type: functional; conditions: Homo sapiens
[44] = system: UO-31; assay: In vitro growth inhibition of compound was determined against UO-31 cell lines of Renal cancer; type: functional; conditions: Homo sapiens
[45] = system: U-251; assay: In vitro growth inhibition of compound was determined against U251 cell lines of CNS cancer; type: functional; conditions: Homo sapiens
[46] = system: ACHN; assay: In vitro growth inhibition of compound was determined against ACHN cell lines of Renal cancer; type: functional; conditions: Homo sapiens
[47] = system: HOP-62; assay: In vitro growth inhibition of compound was determined against HOP-62 cell lines of non-small cell lung cancer; type: functional; conditions: Homo sapiens
[48] = system: HT-29; assay: In vitro growth inhibition of compound was determined against HT-29 cell lines of colon cancer; type: functional; conditions: Homo sapiens
[49] = system: PC-3; assay: In vitro growth inhibition of compound was determined against PC-3 cell lines of Prostate cancer; type: functional; conditions: Homo sapiens

NS(=O)(=O)c1ccc(CCNSC(=S)N2CCOCC2)cc1
Ki [1]: 0.035 µM

CCN(CC)C(=S)SS(=O)(=O)c1ccc(NC(C)=O)cc1
GI50 [2]: 0.2 µM
GI50 [3]: 17 µM
GI50 [4]: 61 µM
GI50 [5]: 22 µM
GI50 [6]: 20 µM
GI50 [7]: 16 µM
GI50 [8]: 23 µM
GI50 [9]: 28 µM
GI50 [10]: 16 µM
GI50 [11]: 24 µM
GI50 [12]: 15 µM
GI50 [13]: 27 µM
GI50 [14]: 60 µM
GI50 [15]: 12 µM
GI50 [16]: 69 µM
GI50 [17]: 13 µM
GI50 [18]: 48 µM
GI50 [19]: 14 µM
GI50 [20]: 19 µM
GI50 [21]: 20 µM
GI50 [22]: 21 µM
GI50 [23]: 15 µM
GI50 [24]: 16 µM
GI50 [25]: 18 µM
GI50 [26]: < 0.01 µM
GI50 [27]: 35 µM
GI50 [28]: 27 µM
GI50 [29]: 31 µM
GI50 [30]: 15 µM
GI50 [31]: 22 µM
GI50 [32]: 11 µM
GI50 [33]: 18 µM
GI50 [34]: 44 µM
GI50 [35]: 16 µM
GI50 [36]: 0.01 µM
GI50 [37]: 18 µM
GI50 [38]: 28 µM
GI50 [39]: 32 µM
GI50 [40]: 15 µM
GI50 [41]: 0.4 µM
GI50 [42]: 48 µM
GI50 [43]: 9 µM
GI50 [44]: 20 µM
GI50 [45]: 15 µM
GI50 [46]: 27 µM
GI50 [47]: 18 µM

NS(=O)(=O)c1ccc(NSC(=S)N2CCOCC2)cc1
Ki [1]: 0.035 µM

CCN(CC)C(=S)SS(=O)(=O)c1ccccc1C(=O)O
GI50 [2]: 6.5 µM
GI50 [3]: > 100 µM
GI50 [5]: > 100 µM
GI50 [6]: 82 µM
GI50 [7]: > 100 µM
GI50 [8]: > 100 µM
GI50 [9]: > 100 µM
GI50 [10]: > 100 µM
GI50 [11]: 1.4 µM
GI50 [48]: > 100 µM
GI50 [15]: > 100 µM
GI50 [19]: > 100 µM
GI50 [21]: > 100 µM
GI50 [22]: > 100 µM
GI50 [23]: > 100 µM
GI50 [24]: 91 µM
GI50 [25]: > 100 µM
GI50 [26]: 1.2 µM
GI50 [27]: > 100 µM
GI50 [29]: > 100 µM
GI50 [30]: > 100 µM
GI50 [31]: > 100 µM
GI50 [49]: > 100 µM
GI50 [32]: > 100 µM
GI50 [34]: > 100 µM
GI50 [35]: > 100 µM
GI50 [36]: 3.6 µM
GI50 [38]: > 100 µM
GI50 [39]: > 100 µM
GI50 [40]: > 100 µM
GI50 [41]: 37 µM
GI50 [43]: > 100 µM
GI50 [44]: > 100 µM
GI50 [45]: > 100 µM
GI50 [46]: > 100 µM
GI50 [47]: > 100 µM
